Results reported in patent US7033999B2, “Nitrosated and nitrosylated heme proteins” (Brigham and Women's Hospital, priority 1991, dated 2006).

Columns and labels:
gel-filtered platelets [1] = assay: Platelet aggregation (nephelometric aggregometry); assay type: cell-based, human
Protocol: Venous blood, anticoagulated with 1-mM trisodium citrate, was obtained from volunteers who had not consumed acetylsalicylic acid for at least ten days. Platelet-rich plasma (PRP) was prepared by centrifugation at 150 g for ten minutes at 25° C. Platelet counts were determined with a Coulter counter (model ZM; Coulter Electronics, Hialeah, Fla.).
Platelets were gel-filtered on a 4× 10 cm column of Sepharose 2B in Tyrode's Hepes buffer as described previously (Hawiger et al., Nature 2831:195–198 (1980), herein incorporated by reference). Platelets were typically suspended at a concentration of 1.5×10^8/ml and were used within 30 minutes of preparation. Platelet aggregation was monitored using a standard nephelometric technique (Born, et al., J. Physiol. 168:178–195 (1963), herein incorporated by reference), in which 0.3-ml aliquots of gel-filtered platelets were incubated at 37° C. and stirred at 1000 rpm in a PAP-4 aggregometer (Biodata, Hatboro, Pa.). Gel-filtered platelets were preincubated with t-PA or S—NO-t-PA for up to 45 minutes and aggregations induced with 5 μM ADP or 0.025 U/ml thrombin.
Aggregations were quantified by measuring the maximal rate or extent of light transmittance and expressed as a normalized value relative to control aggregations.
The effect of S-nitroso-BSA on platelet aggregation was studied, using a gel-filtered platelet preparation, as previously described (Hawiger et al., Nature 2831:195 (1980)) and suspended at 150,000 platelets/ul in HEPES buffer, pH 7.35. S—NO-BSA was incubated with platelets for ten minutes at 37° C. in a PAP-4 aggregometer (BioData, Hatboro, Pa.), after which aggregations were induced with 5 μM ADP. Aggregations were quantified by measuring the extent of change of light transmittance and expressed as a normalized value relative to control aggregations.

[2] = test system: endothelium-denuded rabbit aortic strips; assay: Vessel relaxation bioassay; assay type: cell-based
Protocol: New Zealand White female rabbits weighing 3–4 kg were anesthetized with 30 mg/kg IV sodium pentobarbital. Descending thoracic aortae were isolated and placed immediately in a cold physiologic salt solution (Kreb's) (mM): NaCl, 118; CKl, 4.7; CaCl2, 2.5; MgSO4, 1.2; KH2PO4, 1.2; NaHCO3, 12.5; and D-glucose, 11.0. The vessels were cleaned of adherent connective tissue, and the endothelium removed by gentle rubbing with a cotton tipped applicator inserted into the lumen, after which the vessel was cut into 5 mm rings. The rings were mounted on stirrups and connected to transducers (model FT03C Grass Instruments, Quincy, Mass.) by which changes in isometric tension were recorded.
Samples were added to a standard bioassay in which vessel rings were suspended in glass chambers containing seven mil of oxygenated Kreb's buffer, in a standard bioassay (Cook et al., Am. J. Physiol. 28:H804 (1989), herein incorporated by reference). Sustained contractions, to 2 gm tension, were induced with 1 μM epinephrine, after which the effects of t-PA and S—NO-t-PA were tested. In certain experiments the guanylate cyclase inhibitor, methylene blue, was preincubated with vessel rings for 15 minutes prior to initiation of contractions.
The vasodilatory actions of S-nitroso-BSA were examined in a standard bioassay containing endothelium-denuded rabbit aortic strips in Kreb's buffer, pH 7.5, at 37°, as described in Example 6.
In vessel experiments, relaxations to S—NO-BSA are expressed as-percent of tone induced by 1.0 μM norepinephrine.

hemoglobin = hemoglobin (Bos taurus, UniProt P01966+P02070); conditions: for reaction at the redox metal (iron-binding site) of hemoglobin: UV spectrum, SNOAC over 15 minutes
hemoglobin, sequence (P01966 2-142): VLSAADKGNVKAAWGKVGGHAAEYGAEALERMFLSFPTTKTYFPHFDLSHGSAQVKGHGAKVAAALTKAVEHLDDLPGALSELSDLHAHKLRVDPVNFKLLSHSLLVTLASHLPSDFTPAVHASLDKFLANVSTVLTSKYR
hemoglobin, sequence (P02070 whole entry): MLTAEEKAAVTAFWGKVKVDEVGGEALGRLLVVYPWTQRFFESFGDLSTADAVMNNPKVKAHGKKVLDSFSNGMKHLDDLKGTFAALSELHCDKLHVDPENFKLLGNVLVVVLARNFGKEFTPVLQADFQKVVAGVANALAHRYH

gel-filtered platelets [3] = assay: Platelet aggregation (nephelometric aggregometry); assay type: cell-based, human; remark: listed apart in the source
[4] = Canine model of subtotal coronary artery occlusion; assay type: in vivo, dog
Excerpt: (§1) These extremely potent, but reversible anti-platelet properties in vivo are unmatched by classic nitrates. […] As shown in FIGS. 12–14, the constellation of anti-platelet effect, long duration of action, and increased coronary blood flow, is unmatched by other nitroso-compounds. Thus, S-nitroso-proteins have very unique hemodynamic and bioactive profiles.

[5] = Infusion into anesthetized dogs (blood pressure, coronary flow); assay type: in vivo, dog
Excerpt: as §1

[6] = test system: RFL-6 lung fibroblasts containing a soluble guanylate cyclase; assay: Cyclic GMP in cultured RFL-6 lung fibroblasts; assay type: cell-based
Protocol: Consonant with the mechanism of other nitro(so)-vasodilators (Ignarro, L. J. Circ. Res. 65:1 (1989)), relaxations were abolished by methylene blue, an inhibitor of guanylate cyclase (FIG. 11a). This mechanism was confirmed by showing that S-nitroso-BSA (18 μM) induces 3.5-fold increases (n=2) in cyclic GMP over basal levels relative to BSA alone in cultured RFL-6 lung fibroblasts containing a soluble guanylate cyclase exquisitely sensitive to NO (Forstermann et al., Mol. Pharmacol. 38:7 (1990)). Stimulation of guanylate cyclase by S-nitroso-BSA was attenuated by methylene blue.

trachea rings = assay: Airway smooth muscle relaxation, trachea rings; assay type: cell-based, guinea pig
Excerpt: (§2) Male Hartley guinea pigs (500–600 g) were anesthetized by inhalation of enflurane to achieve a surgical plane of anesthesia. The trachea were excised and placed in Kreb's-Hanseleit buffer (mM); NaCl 118, KCl 5.4, NaH2PO4 1.01, glucose 11.1, NaHCO3 25.0, MgSO4 0.69, CaCl 2.32, pH 7.4. The airways were then dissected free from surrounding fat and connective tissue and cut into rings 2–4 mm in diameter. The trachea rings were placed in sterile Medium 199 containing 1% antibiotic/antimycotic mixture in an atmosphere of 5% CO2, […], 55% N2 and kept for up to 48 hours in tissue culture. The experiments were also performed on human airways isolated by the same method.
(§3) Trachea rings were mounted on stirrups and connected to transducers (model FTO3C Grass), by which changes in isometric tension were measured. Rings were then suspended in 10 cc of oxygenated (95% O2, 5% CO2) buffer. Airway rings were equilibrated for 60 minutes under a load of 1 gm and then primed twice by exposure to 100 μM methacholine. The rings were contracted with various agonists at concentrations determined to generate 50% (±16% S.D.) of maximum tone, after which the effect of S—NO-BSA was assessed. In selected experiments, relaxation responses were determined in the presence of hemoglobin, or after rings had been preexposed to methylene blue for 30 minutes.

human airways [7] = assay: Bronchodilatory effect in human airways contracted with methacholine; assay type: cell-based
Excerpt: as §2, §3
(§4) The effect of guanylate cyclase inhibitors upon S-nitroso-protein-induced airway relaxation and cGMP increase was assessed, using the previously described bioassay and cyclic nucleotide assay procedures. The bronchodilatory effect of S-nitroso-albumin was examined in human airways (5–12 mm outer diameter).

[8] = Stability of S-nitroso-albumin in the presence of oxygen and redox metals; assay type: physicochemical; conditions: Cu^+, Fe^2+, or Cu^2+ (50 μM) or defuroxamine or EDTA (10 μM)
Protocol: The stability of S-nitroso-albumin in the presence of oxygen and redox metals was assessed.
In addition, S-nitroso-protein stability was assessed in the presence of various redox metals or chelating agents.

human airways [9] = assay: Airway cGMP levels; assay type: cell-based; conditions: 100 μM
Protocol: as §4

[10] = Hemoglobin-oxygen association curve; conditions: S-nitrosylation of hemoglobin
Excerpt: Thus, the reaction between S-nitrosothiols and hemoglobin not only eliminates the inhibition of oxygen binding which occurs from the reaction with uncharged NO and generation of methemoglobin, but it actually increases oxygen binding.

[11] = clinically used comparator; cited from earlier work
[12] = acidified NaNO2, NO gas or EDRF from endothelial cells

## [N]=O [NO, nitric oxide, reference compound]
gel-filtered platelets [1]; NO generated from NaNO2 (150 nM), n=5
  normalized extent of aggregation: 0.98±0.11
gel-filtered platelets [1]; NOx generated from NaNO2
  effect on the extent of platelet aggregation: no significant effect
[2]; 150 nM, contraction with 1 μM epinephrine, mean ±S.D., n=4
  % Relaxation: 1.0 ± 1.7%
hemoglobin
  reaction at the redox metal (iron-binding site) of hemoglobin: reacted instantaneously

## O=N[O-].[Na+] [NaNO2, Sodium nitrite, reference compound]
gel-filtered platelets [3]; concentrations up to 15 μM
  effect on platelet aggregation (sentence negated: neither ... had): any significant effect
[2]; concentrations up to 15 μM
  effect on vessel tone (sentence negated: neither ... had): any significant effect

## CC(=O)N[C@@H](CSN=O)C(=O)O [SNOAC, S-nitroso-N-acetylcysteine]
hemoglobin
  reaction at the redox metal (iron-binding site) of hemoglobin: no reaction

## NO-BSA: BSA loaded with NO at a ratio of 20:1 in 0.5 N HCl (Example 14)
[2]; BSA loaded with NO as in Example 14
  vessel relaxation with increasing concentrations of NO loaded: increase in vessel relaxation

## S-nitroso-BSA: S-nitrosylated bovine serum albumin
gel-filtered platelets [1]; [12]
  platelet inhibitory potency by method of synthesis: essentially equipotent
gel-filtered platelets [3]; 1.4 μM, impedance aggregometry for whole blood
  platelet inhibitory effect in platelet-rich plasma and whole blood: confirmed
[2]; [12]
  vasorelaxant potency by method of synthesis: essentially equipotent
[2]; compared with EDRF, NO, low molecular weight S-nitrosothiols
  character of relaxation response: less rapid, but much more persistent, relaxation response
[4]
  bleeding times: significantly prolonged
  platelet-dependent cyclic thrombus formation: inhibited
[5]
  blood pressure: prolonged decreases in blood pressure
  coronary flow: increased coronary flow
[6]; 18 μM, n=2
  increases in cyclic GMP over basal levels relative to BSA alone: 3.5 fold
[6]; methylene blue
  stimulation of guanylate cyclase in presence of methylene blue: attenuated
Trachea rings; 0.01 μM
  relaxation of airway smooth muscle: 50%
Trachea rings; 10 μM
  relaxation of airway smooth muscle: over 75%

## S-nitroso-albumin: S-nitrosylated albumin used in Examples 17 and 18; likely the same as S-nitroso-BSA
Human airways [7]; hemoglobin (100 μM)
  effect of hemoglobin on airway relaxation: little effect
Human airways [7]; methylene blue (10^−4) or LY83583 (5×10^−5)
  airway relaxation in presence of methylene blue or LY83583: not significantly inhibited
Human airways [7]; rings contracted with methacholine (7 μM), read-out: IC50 of airway relaxation
  IC50: 22 µM
[8]
  decomposition in presence of redox metals or chelating agents: resistant to decomposition
Human airways [9]
  airway cGMP levels: increases over control

## S-nitroso-hemoglobin: derived from the nitrosylation of hemoglobin
hemoglobin
  formation of methemoglobin: does not result in the formation of methemoglobin
[10]
  hemoglobin-oxygen association curve: leftward shift

## nitroprusside
[11]
  effect on coronary flow: deleterious effects on coronary flow
